What was measured:
Conditions in all cases: 72 h
HCC1937 [1] = tested on: HCC1937
How it was run: (§1)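 Two sequential readouts followed a 72 h incubation of breast cancer cell lines with compound at 5 concentrations in 10-fold steps over a compound-specific 10,000-fold range: CellTox Green fluorescence (485/520 nm) for cell death, then CellTiter-Glo luminescence, after 10 min at room temperature, for viability. Each plate was normalised to 0.1 % DMSO and a positive kill control. Dose-response curves were fitted for EC50, censored at the top concentration.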

MDA-MB-436 = tested on: MDA-MB-436
How it was run: as §1

MCF-10A = tested on: MCF-10A
How it was run: as §1

HDQ-P1 = tested on: HDQ-P1
How it was run: (§2)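 Compound dissolved in 5 µl medium was placed in 384-well plates before 20 µl of breast cancer cell suspension was added, and the plates were incubated for 72 h. Cells then received 2.5 µl CellTiter-Blue for 2 h at 37 °C, and fluorescence was read at 560/590 nm. EC50 values come from percent-inhibition dose-response fits that were censored at the highest concentration, with plates normalised to vehicle and a positive kill control and rows with a zero drug sensitivity score excluded.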

MDA-MB-231 [2] = tested on: MDA-MB-231
How it was run: as §1

MDA-MB-231 [3] = tested on: MDA-MB-231; remark: listed apart in the source
How it was run: as §2

HCC1143 [4] = tested on: HCC1143
How it was run: as §2

MDA-MB-468 [5] = tested on: MDA-MB-468
Procedure: (§3)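 Drug sensitivity and resistance testing (DSRT) of breast cancer cell lines in 384-well plates, 5 concentrations in 10-fold dilutions over a compound-specific 10,000-fold range. After 72 h, cytotoxicity was read by CellTox Green fluorescence and viability by CellTiter-Glo luminescence (multiplexed), normalised to DMSO and benzethonium chloride controls. EC50 is the inflection point of the fitted dose-response curve (bottom asymptote free, so it can be relative for partial curves) and is censored at the highest tested concentration. Rows with DSS 0 (no meaningful response) were excluded.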

BT-549 [6] = tested on: BT-549
Procedure: as §3

CAL-85-1 [7] = tested on: CAL-85-1
Procedure: as §3

MDA-MB-231 [8] = tested on: MDA-MB-231; remark: listed apart in the source
Procedure: as §3

CAL-120 [9] = tested on: CAL-120
How it was run: as §1

BT-549 [10] = tested on: BT-549; remark: listed apart in the source
How it was run: as §1

CAL-85-1 [11] = tested on: CAL-85-1; remark: listed apart in the source
How it was run: as §1

Hs578T [12] = tested on: Hs578T
How it was run: as §1

SK-BR-3 = tested on: SK-BR-3
How it was run: as §1

HCC1143 [13] = tested on: HCC1143; remark: listed apart in the source
How it was run: as §1

CAL-85-1 [14] = tested on: CAL-85-1; remark: listed apart in the source
How it was run: as §2

MFM-223 [15] = tested on: MFM-223
How it was run: as §1

HCC1937 [16] = tested on: HCC1937; remark: listed apart in the source
How it was run: as §2

MDA-MB-453 = tested on: MDA-MB-453
How it was run: as §2

CAL-148 [17] = tested on: CAL-148
How it was run: as §2

CAL-51 = tested on: CAL-51
How it was run: as §2

CAL-148 [18] = tested on: CAL-148; remark: listed apart in the source
How it was run: as §1

MFM-223 [19] = tested on: MFM-223; remark: listed apart in the source
How it was run: as §2

DU-4475 = tested on: DU-4475
How it was run: as §2

CAL-120 [20] = tested on: CAL-120; remark: listed apart in the source
How it was run: as §2

MDA-MB-468 [21] = tested on: MDA-MB-468; remark: listed apart in the source
How it was run: as §2

BT-549 [22] = tested on: BT-549; remark: listed apart in the source
How it was run: as §2

Hs578T [23] = tested on: Hs578T; remark: listed apart in the source
How it was run: as §2

SMILES: CCCCCCCCCCCCCCCCCCOP(=O)([O-])OC1CC[N+](C)(C)CC1 [Perifosine]
- EC50, CellTiter-Glo (HCC1937 [1]): 2080 nM
- EC50, CellTiter-Glo (MDA-MB-436): > 2500 nM
- EC50, CellTiter-Glo (MCF-10A): > 2500 nM

SMILES: Oc1nc(-c2ccc(C(F)(F)F)cc2)nc2c1CSCC2 [XAV-939]
- EC50, CellTiter-Blue viability (HDQ-P1): 2090 nM
- EC50, CellTiter-Glo (MDA-MB-231 [2]): 172 nM
- EC50, CellTiter-Blue viability (MDA-MB-231 [3]): 2590 nM
- EC50, CellTiter-Blue viability (HCC1143 [4]): > 10000 nM

SMILES: N#CCNC(=O)c1ccc(-c2ccnc(Nc3ccc(N4CCOCC4)cc3)n2)cc1 [Momelotinib]
- EC50, CellTox Green (MDA-MB-468 [5]): 5270 nM
- EC50, CellTox Green (BT-549 [6]): 3300 nM
- EC50, CellTox Green (CAL-85-1 [7]): 1630 nM
- EC50, CellTox Green (MDA-MB-231 [8]): 77.2 nM
- EC50, CellTiter-Glo (CAL-120 [9]): 1380 nM
- EC50, CellTiter-Glo (BT-549 [10]): 2110 nM
- EC50, CellTiter-Glo (CAL-85-1 [11]): 2160 nM
- EC50, CellTiter-Glo (Hs578T [12]): 2240 nM
- EC50, CellTiter-Glo (SK-BR-3): 2900 nM
- EC50, CellTiter-Glo (MDA-MB-231 [2]): 5190 nM
- EC50, CellTiter-Glo (MCF-10A): 6590 nM
- EC50, CellTiter-Glo (HCC1143 [13]): 1570 nM

SMILES: Cc1ccc(-n2nc(C(C)(C)C)cc2NC(=O)Nc2ccc(OCCN3CCOCC3)c3ccccc23)cc1 [Doramapimod]
- EC50, CellTiter-Blue viability (CAL-85-1 [14]): 27.3 nM
- EC50, CellTiter-Glo (MFM-223 [15]): 2800 nM

SMILES: CN(N=O)C(=O)N[C@@H](C=O)[C@@H](O)[C@H](O)[C@H](O)CO [Streptozocin]
- EC50, CellTiter-Blue viability (HCC1937 [16]): 85.3 nM

SMILES: CNCc1ccc(-c2[nH]c3cc(F)cc4c3c2CCNC4=O)cc1 [Rucaparib]
- EC50, CellTiter-Blue viability (MDA-MB-453): 6180 nM
- EC50, CellTiter-Blue viability (CAL-148 [17]): 7670 nM
- EC50, CellTiter-Blue viability (CAL-51): 8870 nM
- EC50, CellTox Green (MDA-MB-468 [5]): 2.01 nM
- EC50, CellTiter-Glo (BT-549 [10]): > 10000 nM
- EC50, CellTiter-Glo (CAL-148 [18]): 501 nM
- EC50, CellTiter-Blue viability (HCC1937 [16]): 945 nM
- EC50, CellTiter-Blue viability (MFM-223 [19]): 5060 nM
- EC50, CellTiter-Blue viability (MDA-MB-231 [3]): 683 nM

SMILES: CCN(CCCOc1ccc2c(Nc3cc(CC(=O)Nc4cccc(F)c4)[nH]n3)ncnc2c1)CCOP(=O)(O)O [Barasertib]
- EC50, CellTiter-Blue viability (DU-4475): 375 nM
- EC50, CellTiter-Blue viability (CAL-85-1 [14]): 9.39 nM
- EC50, CellTiter-Blue viability (MDA-MB-453): 6.32 nM
- EC50, CellTiter-Blue viability (CAL-148 [17]): 7.07 nM
- EC50, CellTiter-Blue viability (CAL-51): 37.9 nM
- EC50, CellTiter-Blue viability (HCC1937 [16]): 29.6 nM
- EC50, CellTiter-Blue viability (CAL-120 [20]): 30 nM
- EC50, CellTiter-Blue viability (MDA-MB-468 [21]): 44.5 nM
- EC50, CellTiter-Blue viability (BT-549 [22]): 23.1 nM
- EC50, CellTiter-Blue viability (Hs578T [23]): 12.5 nM
- EC50, CellTiter-Blue viability (MDA-MB-231 [3]): 156 nM

— the supplement of paper PMC4862054
